Experimental data from patent publication US20240090506A1, “SURFACE MODIFICATION TO REGULATE PLANT GROWTH” (BIND-X GMBH, priority 2020, published 2024).

System: Plantago lanceolate (ribwort plantain) and Poa annua (annual meadow grass)
Experiment: Pot test with solid (powdered) alkali silicates or mixtures: weed coverage rate, degree of efficiency = weed penetration resistance (Example 2)
Assay type: in vivo
Details: in the dosage used in the mixtures
Procedure: The experiment was carried out in the laboratory in plant pots with a volume of 450 cm^3. The application area was 78.5 cm^2. The soil substrate was a sifted land soil. Humus (humic soil) was used as a nutrient source for the desired plant. […] On top of the humic soil, 250 g of sifted land soil was placed. Both soil substrates were free of weed growth prior to treatment. Both soils contained minimal residues of endemic weed seeds or inflowing seeds. These present seeds were not sufficient for efficient weed growth. […] For this purpose, the weeds were worked into the top soil layer in a depth of 2-4 mm. Different alkali silicate powders were used in this experiment, which are specified in detail below. Hardeners and/or performance modifiers were added, if applicable. The solid formulations were mixed and then applied homogeneously to the soil surface. […] The coverage rate was determined by manual visual assessment of the plant pots at the specified times, as described in example 1. […] From this in turn the degree of efficiency according to Abbott was calculated as follows: Degree of efficiency=[coverage rate control(day x)−coverage rate product(day x)]/coverage rate control(day x)*100 Furthermore, the quality of the formed layer was observed regularly with respect to crack formation. […]

CC(=O)[O-].CC(=O)[O-].[Ca+2] [calcium acetate]
weed penetration resistance of the performance modifier alone: An effect is observed only at the beginning of the experiment
